Laboratory results from patent US6914045B2, “Glycopeptide antibiotics” (Wyeth Holdings Corporation, priority 2001, dated 2005).
Converted amounts (≈) assume the structure as drawn.

Legend:
Assay in all cases: in vitro antibacterial evaluation, MIC by broth dilution
Assay type in all cases: cell-based
[1] = test system: Streptococcus sp.; conditions: broth dilution, 18 hours at 35° C.
Description: (§1) Methods for in vitro Antibacterial Evaluation (Table 1)
(§2) The minimum inhibitory concentration (MIC), the lowest concentration of the antibiotic which inhibits growth of the test organism, is determined by the broth dilution method using Muller-Hinton II […] (Baltimore Biological Laboratories) following the recommendations of the National Committee for Clinical Laboratory Standards [Methods for dilution antimicrobial susceptibility tests for bacteria that grow aerobically, approved standard M7-A2, National Committee for Clinical Laboratory Standards, Villanova, Pa.].
(§3) An inoculum level of 5×10^5 CFU/mL, and a range of antibiotic concentrations (64-0.06 μg/mL) is used. […] The test organisms include a spectrum of Gram-positive bacteria comprised of Staphylococcus sp., Streptococcus sp. and Enterococcus sp. These organisms include recent clinical isolates that are resistant to methicillin, penicillin and/or vancomycin.

[2] = test system: Enterococcus sp.; conditions: broth dilution, 18 hours at 35° C.
Description: as §1, §2, §3

[3] = test system: Staphylococcus sp.; conditions: broth dilution, 18 hours at 35° C.; for MIC Staphylococcus aureus (ATCC 29213): strain ATCC 29213; for MIC Staphylococcus aureus (GC 1131): strain GC 1131; for MIC Staphylococcus aureus (GC 3051): strain GC 3051; for MIC Staphylococcus aureus (GC 3053): strain GC 3053; for MIC Staphylococcus aureus (GC 4541): strain GC 4541; for MIC Staphylococcus aureus (GC 4542): strain GC 4542; for MIC Staphylococcus aureus-SMITH (GC 4543): strain GC 4543; for MIC Staphylococcus aureus (GC 4544): strain GC 4544; for MIC Staphylococcus aureus (GC 4545): strain GC 4545; for MIC Staphylococcus haemolyticus (GC 4546): strain GC 4546; for MIC Coagulase Negative Staphylococcus (GC 4547): strain GC 4547; for MIC Coagulase Negative Staphylococcus (GC 4548): strain GC 4548; for MIC Coagulase Negative Staphylococcus (GC 4549): strain GC 4549; for MIC Coagulase Negative Staphylococcus (GC 4551): strain GC 4551
Description: as §1, §2, §3

[4] = test system: Escherichia coli; conditions: 18 hours at 35° C.

CC(c1ccccc1)C1NC(=O)CNC(=O)C(CO)NC(=O)C(C(O)C2CNC(=N)N2C2OC(CO)C(O)C(O)C2O)NC(=O)C(C(O)C2CNC(=N)N2)NC(=O)C(Cc2ccc(OC3OC(CO)C(OC4OC5COC6(OC5C(O)C4O)C4CCCC6CCC4)C(O)C3O)cc2)NC1=O (stereo not shown) [Example 212]
MIC Streptococcus agalactiae (GC 4564) [1]: 1 µg/mL (≈ 0.706 µM)
MIC Streptococcus pneumoniae (ATCC 6301) [1]: 0.5 µg/mL (≈ 0.353 µM)
MIC Streptococcus pneumoniae (GC 1894) [1]: <0.06 µg/mL
MIC Streptococcus pneumoniae (GC 4565) [1]: 0.25 µg/mL (≈ 0.177 µM)
MIC Streptococcus pyogenes (GC 4563) [1]: 1 µg/mL (≈ 0.706 µM)
MIC Streptococcus pneumoniae (ATCC 6301) ([1]; inoculum 5×10^5 CFU/mL, strain ATCC 6301): 0.5 µg/mL (≈ 0.353 µM)
MIC Streptococcus pneumoniae (GC 1894) ([1]; inoculum 5×10^5 CFU/mL, strain GC 1894): <0.06 µg/mL
MIC Streptococcus pyogenes (GC 4563) ([1]; inoculum 5×10^5 CFU/mL, strain GC 4563): 1 µg/mL (≈ 0.706 µM)
MIC Streptococcus agalactiae (GC 4564) ([1]; inoculum 5×10^5 CFU/mL, strain GC 4564): 1 µg/mL (≈ 0.706 µM)
MIC Streptococcus pneumoniae (GC 4565) ([1]; inoculum 5×10^5 CFU/mL, strain GC 4565): 0.25 µg/mL (≈ 0.177 µM)
MIC Enterococcus avium (GC 4558) [2]: 4 µg/mL (≈ 2.83 µM)
MIC Enterococcus faecalis (ATCC 29212) [2]: 8 µg/mL (≈ 5.65 µM)
MIC Enterococcus faecalis (GC 2242) [2]: 8 µg/mL (≈ 5.65 µM)
MIC Enterococcus faecalis (GC 2691) [2]: 8 µg/mL (≈ 5.65 µM)
MIC Enterococcus faecalis (GC 3059) [2]: 8 µg/mL (≈ 5.65 µM)
MIC Enterococcus faecalis (GC 4552) [2]: 8 µg/mL (≈ 5.65 µM)
MIC Enterococcus faecalis (GC 4553) [2]: 8 µg/mL (≈ 5.65 µM)
MIC Enterococcus faecalis (GC 4554) [2]: 8 µg/mL (≈ 5.65 µM)
MIC Enterococcus faecalis (GC 6189) [2]: 8 µg/mL (≈ 5.65 µM)
MIC Enterococcus faecium (GC 2243) [2]: 8 µg/mL (≈ 5.65 µM)
MIC Enterococcus faecium (GC 4556) [2]: 8 µg/mL (≈ 5.65 µM)
MIC Enterococcus faecium (GC 4557) [2]: 4 µg/mL (≈ 2.83 µM)
MIC Enterococcus faecalis (ATCC 29212) ([2]; inoculum 5×10^5 CFU/mL, strain ATCC 29212): 8 µg/mL (≈ 5.65 µM)
MIC Enterococcus faecalis (GC 2242) ([2]; inoculum 5×10^5 CFU/mL, strain GC 2242): 8 µg/mL (≈ 5.65 µM)
MIC Enterococcus faecium (GC 2243) ([2]; inoculum 5×10^5 CFU/mL, strain GC 2243): 8 µg/mL (≈ 5.65 µM)
MIC Enterococcus faecalis (GC 2691) ([2]; inoculum 5×10^5 CFU/mL, strain GC 2691): 8 µg/mL (≈ 5.65 µM)
MIC Enterococcus faecalis (GC 3059) ([2]; inoculum 5×10^5 CFU/mL, strain GC 3059): 8 µg/mL (≈ 5.65 µM)
MIC Enterococcus faecalis (GC 4552) ([2]; inoculum 5×10^5 CFU/mL, strain GC 4552): 8 µg/mL (≈ 5.65 µM)
MIC Enterococcus faecalis (GC 4553) ([2]; inoculum 5×10^5 CFU/mL, strain GC 4553): 8 µg/mL (≈ 5.65 µM)
MIC Enterococcus faecalis (GC 4554) ([2]; inoculum 5×10^5 CFU/mL, strain GC 4554): 8 µg/mL (≈ 5.65 µM)
MIC Enterococcus faecium (GC 4556) ([2]; inoculum 5×10^5 CFU/mL, strain GC 4556): 8 µg/mL (≈ 5.65 µM)
MIC Enterococcus faecium (GC 4557) ([2]; inoculum 5×10^5 CFU/mL, strain GC 4557): 4 µg/mL (≈ 2.83 µM)
MIC Enterococcus avium (GC 4558) ([2]; inoculum 5×10^5 CFU/mL, strain GC 4558): 4 µg/mL (≈ 2.83 µM)
MIC Enterococcus faecalis (GC 6189) ([2]; inoculum 5×10^5 CFU/mL, strain GC 6189): 8 µg/mL (≈ 5.65 µM)
MIC Staphylococcus aureus (ATCC 29213) [3]: 2 µg/mL (≈ 1.41 µM)
MIC Staphylococcus aureus (GC 1131) [3]: 4 µg/mL (≈ 2.83 µM)
MIC Staphylococcus aureus (GC 3051) [3]: 2 µg/mL (≈ 1.41 µM)
MIC Staphylococcus aureus (GC 3053) [3]: 4 µg/mL (≈ 2.83 µM)
MIC Staphylococcus aureus (GC 4541) [3]: 2 µg/mL (≈ 1.41 µM)
MIC Staphylococcus aureus (GC 4542) [3]: 2 µg/mL (≈ 1.41 µM)
MIC Staphylococcus aureus-SMITH (GC 4543) [3]: 2 µg/mL (≈ 1.41 µM)
MIC Staphylococcus aureus (GC 4544) [3]: 4 µg/mL (≈ 2.83 µM)
MIC Staphylococcus aureus (GC 4545) [3]: 2 µg/mL (≈ 1.41 µM)
MIC Staphylococcus haemolyticus (GC 4546) [3]: 2 µg/mL (≈ 1.41 µM)
MIC Coagulase Negative Staphylococcus (GC 4547) [3]: 2 µg/mL (≈ 1.41 µM)
MIC Coagulase Negative Staphylococcus (GC 4548) [3]: 2 µg/mL (≈ 1.41 µM)
MIC Coagulase Negative Staphylococcus (GC 4549) [3]: 2 µg/mL (≈ 1.41 µM)
MIC Coagulase Negative Staphylococcus (GC 4551) [3]: 2 µg/mL (≈ 1.41 µM)
MIC Coagulase Negative Staphylococcus (GC 6257) ([3]; strain GC 6257): 1 µg/mL (≈ 0.706 µM)
MIC Escherichia coli (ATCC 25922) [4]: 32 µg/mL (≈ 22.6 µM)
MIC Escherichia coli (GC 4559) [4]: 32 µg/mL (≈ 22.6 µM)
MIC Escherichia coli (GC 4560) [4]: 2 µg/mL (≈ 1.41 µM)

CC(C1CCCCC1)C1NC(=O)CNC(=O)C(CO)NC(=O)C(C(O)C2CNC(=N)N2C2OC(CO)C(O)C(O)C2O)NC(=O)C(C(O)C2CNC(=N)N2)NC(=O)C(C[C@H]2CC[C@H](O)CC2)NC1=O (stereo partly drawn) [Example 54a, Cyclo[3-(anti-4-hydroxycyclohexyl)alanyl-3-(2-iminoimidazolidin-4-yl)seoyl-3-(3-hexopyranosyl-2-iminoimidazolidin-4-yl)serylserylglycyl-3-cyclohexyl-2-aminobutanoyl]]
MIC Streptococcus agalactiae (GC 4564) [1]: >128 µg/mL
MIC Streptococcus pneumoniae (ATCC 6301) [1]: >128 µg/mL
MIC Streptococcus pneumoniae (GC 1894) [1]: 128 µg/mL (≈ 130 µM)
MIC Streptococcus pneumoniae (GC 4565) [1]: >128 µg/mL
MIC Streptococcus pyogenes (GC 4563) [1]: >128 µg/mL
MIC Streptococcus pneumoniae (ATCC 6301) ([1]; strain ATCC 6301): >128 µg/mL
MIC Streptococcus pneumoniae (GC 1894) ([1]; strain GC 1894): 128 µg/mL (≈ 130 µM)
MIC Streptococcus pyogenes (GC 4563) ([1]; strain GC 4563): >128 µg/mL
MIC Streptococcus agalactiae (GC 4564) ([1]; strain GC 4564): >128 µg/mL
MIC Streptococcus pneumoniae (GC 4565) ([1]; strain GC 4565): >128 µg/mL
MIC Enterococcus avium (GC 4558) ([2]; Enterococcus avium (GC 4558)): 128 µg/mL (≈ 130 µM)
MIC Enterococcus faecalis (ATCC 29212) ([2]; Enterococcus faecalis (ATCC 29212)): >128 µg/mL
MIC Enterococcus faecalis (GC 4552) ([2]; Enterococcus faecalis (GC 4552)): >128 µg/mL
MIC Enterococcus faecalis (GC 4553) ([2]; Enterococcus faecalis (GC 4553)): >128 µg/mL
MIC Enterococcus faecalis (GC 4554) ([2]; Enterococcus faecalis (GC 4554)): >128 µg/mL
MIC Enterococcus faecalis (GC 6189) ([2]; Enterococcus faecalis (GC 6189)): >128 µg/mL
MIC Enterococcus faecium (GC 2243) ([2]; Enterococcus faecium (GC 2243)): >128 µg/mL
MIC Enterococcus faecium (GC 4556) ([2]; Enterococcus faecium (GC 4556)): >128 µg/mL
MIC Enterococcus faecium (GC 4557) ([2]; Enterococcus faecium (GC 4557)): 128 µg/mL (≈ 130 µM)
MIC Enterococcus avium (GC 4558) [2]: 128 µg/mL (≈ 130 µM)
MIC Enterococcus faecalis (ATCC 29212) [2]: >128 µg/mL
MIC Enterococcus faecalis (GC 2242) [2]: >128 µg/mL
MIC Enterococcus faecalis (GC 2691) [2]: >128 µg/mL
MIC Enterococcus faecalis (GC 3059) [2]: >128 µg/mL
MIC Enterococcus faecalis (GC 4552) [2]: >128 µg/mL
MIC Enterococcus faecalis (GC 4553) [2]: >128 µg/mL
MIC Enterococcus faecalis (GC 4554) [2]: >128 µg/mL
MIC Enterococcus faecalis (GC 6189) [2]: >128 µg/mL
MIC Enterococcus faecium (GC 2243) [2]: >128 µg/mL
MIC Enterococcus faecium (GC 4556) [2]: >128 µg/mL
MIC Enterococcus faecium (GC 4557) [2]: 128 µg/mL (≈ 130 µM)
MIC Enterococcus faecalis (GC 2242) ([2]; strain GC 2242): >128 µg/mL
MIC Enterococcus faecalis (GC 2691) ([2]; strain GC 2691): >128 µg/mL
MIC Enterococcus faecalis (GC 3059) ([2]; strain GC 3059): >128 µg/mL
MIC Staphylococcus aureus (ATCC 29213) [3]: >128 µg/mL
MIC Staphylococcus aureus (GC 1131) [3]: >128 µg/mL
MIC Staphylococcus aureus (GC 3051) [3]: >128 µg/mL
MIC Staphylococcus aureus (GC 3053) [3]: >128 µg/mL
MIC Staphylococcus aureus (GC 4541) [3]: >128 µg/mL
MIC Staphylococcus aureus (GC 4542) [3]: >128 µg/mL
MIC Staphylococcus aureus-SMITH (GC 4543) [3]: >128 µg/mL
MIC Staphylococcus aureus (GC 4544) [3]: >128 µg/mL
MIC Staphylococcus aureus (GC 4545) [3]: >128 µg/mL
MIC Staphylococcus haemolyticus (GC 4546) [3]: 128 µg/mL (≈ 130 µM)
MIC Coagulase Negative Staphylococcus (GC 4547) [3]: 128 µg/mL (≈ 130 µM)
MIC Coagulase Negative Staphylococcus (GC 4548) [3]: >128 µg/mL
MIC Coagulase Negative Staphylococcus (GC 4549) [3]: >128 µg/mL
MIC Coagulase Negative Staphylococcus (GC 4551) [3]: >128 µg/mL
MIC Escherichia coli (ATCC 25922) [4]: >128 µg/mL
MIC Escherichia coli (GC 4559) [4]: >128 µg/mL
MIC Escherichia coli (GC 4560) [4]: >128 µg/mL
